Results: patent publication US8314253B2, “Bridged tetrahydronaphthalene derivatives” (Actelion Pharmaceuticals Ltd., priority 2008, dated 2012)

Key:
isolated mouse hearts = assay: Effect on isolated hearts according to the Langendorff method (Lgdff)
Experimental: The compounds were tested for their potential to reduce blood pressure and their effect on the contractility of the heart muscle. EC50 values on isolated mouse hearts were determined according to Literature (Doring H J., The isolated perfused heart according to Langendorff technique—function—application, Physiol. Bohemoslov. 1990, 39(6), 481-504; Kligfield P, Homer H, Brachfeld N., A model of graded ischemia in the isolated perfused rat heart, J. Appl. Physiol. 1976 June, 40(6), 1004-8).
15 example compounds have been measured using the procedure described above for the Langendorff experiment.

[1] = system: human Cav3.1 Cav3.2 or Cav3.3 channel; assay: In vitro assay T channel (FLIPR, Ca2+-induced fluorescence); format: cell-based; conditions: HEK293 cells expressing human Cav3.1 Cav3.2 or Cav3.3; 10 mM Ca2+; determined up to 10 μM; read-out: T channel antagonistic activity IC50

Compound | EC50 (isolated mouse hearts) | IC50 [1]
CC(C)C(=O)O[C@@]1(CCN(C)CCCc2nc3ccccc3[nH]2)C[C@H]2CC[C@@H]1c1cc(F)c(F)cc12 (relative stereo) [Example 9A, rac-Isobutyric acid (1R*,8R*,9R*)-9-(2-{[3-(1H-benzoimidazol-2-yl)-propyl]-methyl-amino}-ethyl)-4,5-difluoro-tricyclo[6.2.2.0^2,7]dodeca-2,4,6-trien-9-yl ester] | 30 nM | 1400 nM
CC(C)C(=O)OC1(CCN(C)CCCc2nc3ccccc3[nH]2)CC2CCCC1c1ccccc12 [Example 11A, Isobutyric acid (1S,8S,12S)-12-(2-{[3-(1H-Benzoimidazol-2-yl)-propyl]-methyl-amino}-ethyl)-tricyclo[6.3.2.0^2,7]trideca-2,4,6-trien-12-yl ester or isobutyric acid (1R,8R,12R)-12-(2-{[3-(1H-benzoimidazol-2-yl)-propyl]-methyl-amino}-ethyl)-tricyclo[6.3.2.0^2,7]trideca-2,4,6-trien-12-yl ester] | 22 nM | 1050 nM
CC(C)C(=O)O[C@@]1(CCN2CCC(c3nc4ccccc4[nH]3)CC2)C[C@H]2CC[C@@H]1c1ccccc12 (relative stereo) [Example 6A, rac-Isobutyric acid (1R*,8R*,9R*)-9-{2-[4-(1H-benzoimidazol-2-yl)-piperidin-1-yl]-ethyl}-tricyclo[6.2.2.0^2,7]dodeca-2,4,6-trien-9-yl ester] |  | 751 nM
CO[C@@]1(CCN(C)CCCc2nc3ccccc3[nH]2)C[C@H]2CC[C@@H]1c1ccccc12 (relative stereo) [Example 4, rac-(1R*,8R*,9R*)-[3-(1H-Benzoimidazol-2-yl)-propyl]-[2-(9-methoxy-tricyclo[6.2.2.0^2,7]dodeca-2,4,6-trien-9-yl)-ethyl]-methyl-amine] |  | 1220 nM

Continued, values first:

EC50 (isolated mouse hearts) | IC50 [1] | Compound
6 nM | 653 nM | COc1cccc2[nH]c(CCCN(C)CC[C@@]3(OC(=O)CC(F)(F)F)C[C@@H]4CCC[C@H]3c3ccccc34)nc12 [Example 13B, 3,3,3-Trifluoro-propionic acid (1S,8S,12S)-12-(2-{[3-(4-methoxy-1H-benzoimidazol-2-yl)-propyl]-methyl-amino}-ethyl)-tricyclo[6.3.2.02,7]trideca-2,4,6-trien-12-yl ester or 3,3,3-trifluoro-propionic acid (1R,8R,12R)-12-(2-{[3-(4-methoxy-1H-benzoimidazol-2-yl)-propyl]-methyl-amino}-ethyl)-tricyclo[6.3.2.02,7]trideca-2,4,6-trien-12-yl ester]
42 nM | 2070 nM | CC(C)C(=O)O[C@@]1(CCN(C)CCCc2nc3ccccc3[nH]2)C[C@H]2CC[C@@H]1c1ccccc12 (relative stereo) [Example 1B, rac-Isobutyric acid (1R*,8R*,9R*)-9-(2-{[3-(1H-benzoimidazol-2-yl)-propyl]-methyl-amino}-ethyl)-tricyclo[6.2.2.0^2,7]dodeca-2,4,6-trien-9-yl ester]
